Values quoted from earlier work, collected in patent publication EP0385476B2, “Physiologically active polypeptide and DNA” (SHIONOGI & CO., LTD., priority 1989, dated 1999).

System: chicken rectum
Settings: relative to ANP

Substance: porcine brain natriuretic peptide [pBNP]
- rectum relaxation activity, times higher than that of ANP: 3 to 4 times
